Test results reported in paper PMC9289467, “A Novel Multifunctional 5,6-Dimethoxy-Indanone-Chalcone-Carbamate Hybrids Alleviates Cognitive Decline in Alzheimer’s Disease by Dual Inhibition of Acetylcholinesterase and Inflammation” (Frontiers in Aging Neuroscience, 2022).

Columns and labels:
[1] = tested on: spatial learning and memory; experiment: Morris water maze; format: in vivo, APP/PS1 mice; conditions: after 5 months of treatment
Method: (§1) APP/PS1 mice of ages 6 months were randomly divided into vehicle (APP/PS1, n = 10) and treatment groups (AP5, n = 10), which were intragastrically administered with AP5 (40 mg/kg) once daily for consecutive 5 months. AP5 was dissolved in distilled water containing 1% sodium carboxymethyl cellulose.
To investigate whether AP5 treatment plays a key role in cognition improvement of APP/PS1 mice models, the five different behavioral tests were sequentially carried out in the following order: open field, novel object recognition task, spatial object-location task, Y-maze, and Morris water maze (MWM). AP5 was also administered daily during the test periods. A set of video analysis systems (TopScan, CleverSys, United States) was used throughout the behavioral tests. […]
the familiar object) / total exploration time for the novel and familiar object.
For the spatial object location task (an object moved to a new location), mice first explored the two objects placed in two corners of the open field for 5 min in training period. After 1 h or 24 h, the mice received a 5 min retention trial with a new spatial configuration with an object moved from one corner to the opposite corner of the open field.The discrimination index was calculated and defined as: (time spent exploring the displaced object-time spent exploring nondisplaced objects) / total exploration time for the two objects during the 5 min retention trial.
Work on spatial recognition memory was tested by Y-maze. The symmetrical Y-maze consisted of three arms joined in the middle to form a Y shape. […] The ratio between the distance spent in the novel arm and the totaldistance travelled in the maze was quantified as preference index. […]
guided to platform and allowed to stay on it for 30 s. The time (escape latency) for each mouse to find the way and reach the target platform was analyzed. […] The parameters measured during the probe trialincluded number of platform crossing and time spent in the target quadrant. […]

Aβ = experiment: MOAB-2 immunofluorescence of Aβ, APP/PS1 mice; format: in vivo; conditions: cortex and hippocampus; AP5 40 mg/kg once daily 5 months
Method: as §1
(§2) The fixed hemibrains were paraffin-embedded and sectioned in the coronal plane. The slices were deparaffinized with xylene and rehydrated by a series of gradient alcohols. Antigen retrieval through microwave boiling was performed with 10 mM sodium citrate solution at pH 6.0. The slices were cooled down to room temperature and then rinsed in PBS solution. Then the slices were incubated in 10% goat serum blocking solution for 1 h followed by primary antibodies overnight at 4°C. The next day, the slides were labeled with biotinylated or fluorescent secondary antibodies. Slices were washed three times with PBS before being mounted. Images were captured using a SpinSR10 scanner (Olympus, Tokyo, Japan). […]
Cambridge, UK) or anti-GFAP (1:100, bs-0199R, Bioss) at4 °C. After being washed with PBS, slides were treated with a biotinylated secondary antibody for 30 min and with streptavidin-peroxidase complex for another 30 min at 37°C. Immunostaining was visualized with 3,3′-diaminobenzidine (DAB, ZL1-9018, Zhongshan Jinqiao, Beijing, China ).The images were acquired using a Nikon microscope (Nikon, […]

Iba1+ microglia = experiment: Iba1 immunohistochemistry, microglia morphology, APP/PS1 mice; format: in vivo; conditions: AP5 40 mg/kg once daily 5 months
Method: as §1, §2
After deparaffinization and antigen retrieval, the sections were incubated with 0.3% hydrogen peroxide (H2O2) to inhibit endogenous peroxidase activity for 20 min and blocked by goat serum for 30 min at37°C. Slides were subsequently incubated overnight with specific primary antibodies: anti-Iba1(1:100, ab178847, Abcam, Cambridge, UK) or anti-GFAP (1:100, bs-0199R, Bioss) at4 °C. […]

CCN(C)C(=O)Oc1cccc(/C=C2\Cc3cc(OC)c(OC)cc3C2=O)c1 [AP5, (E)-3-((5,6-dimethoxy-1-oxo-1,3-dihydro-2H-inden-2-ylidene)-methyl)phenylethyl(methyl)carbamate]
platform crossing number ([1]; MWM probe trial): performed much better | time spent in the target quadrant ([1]; MWM probe trial): performed much better | escape latency ([1]; MWM): performed much better | area occupied by unaggregated and aggregated Aβ (MOAB-2) (Aβ): also decreased | proportion of activated microglia phenotype (Iba1+ microglia): marked decrease
